According to patent US20060069132A1, “Azolecarboxamide herbicides” (priority 2004, published 2006):

Legend:
barnyardgrass [1] = test: Test A pre-/postemergence herbicide test; type: in vivo, Echinochloa crus-galli
Method in brief: (§1)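 Both application timings were run together: directed soil spray over freshly planted seeds in sandy loam, and runoff spray onto 2–10 cm seedlings. Evaluation after ~10 days in greenhouse used a 0–100 visual scale versus untreated controls.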

large crabgrass [2] = test: Test A pre-/postemergence herbicide test; type: in vivo, Digitaria sanguinalis
Method in brief: as §1

giant foxtail [3] = test: Test A pre-/postemergence herbicide test; type: in vivo, Setaria faberi
Method in brief: as §1

morningglory [4] = test: Test A pre-/postemergence herbicide test; type: in vivo, Ipomoea spp.
Method in brief: as §1

redroot pigweed = test: Test A pre-/postemergence herbicide test; type: in vivo, Amaranthus retroflexus
Method in brief: as §1

velvetleaf [5] = test: Test A pre-/postemergence herbicide test; type: in vivo, Abutilon theophrasti
Method in brief: as §1

barnyardgrass [6] = test: Test B pre-/postemergence herbicide test; type: in vivo, Echinochloa crus-galli
Method in brief: (§2)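 Visual rating, 0 (no effect) to 100 (complete control), versus untreated controls after 13–15 d in greenhouse. Pre- and postemergence applications (postemergence plants 2–18 cm, 1–4 leaves); flooded paddy arm at 2-leaf stage. Compounds in non-phytotoxic solvent plus surfactant.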

Surinam grass = test: Test B pre-/postemergence herbicide test; type: in vivo, Urochloa decumbens
Method in brief: (§3)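 Response was scored visually 13 to 15 days after treatment against untreated greenhouse controls, 0 meaning no effect and 100 complete control. Formulations (solvent mixture plus surfactant) went onto soil after planting, onto foliage of 1- to 4-leaf plants, and onto 2-leaf plants in a flooded paddy set including rice and barnyardgrass.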

cocklebur = test: Test B pre-/postemergence herbicide test; type: in vivo, Xanthium strumarium
Method in brief: as §2

corn = test: Test B pre-/postemergence herbicide test; type: in vivo, Zea mays
Method in brief: as §3

large crabgrass [7] = test: Test B pre-/postemergence herbicide test; type: in vivo, Digitaria sanguinalis
Method in brief: as §3

giant foxtail [8] = test: Test B pre-/postemergence herbicide test; type: in vivo, Setaria faberi
Method in brief: as §3

lambsquarters = test: Test B pre-/postemergence herbicide test; type: in vivo, Chenopodium album
Method in brief: as §3

morningglory [9] = test: Test B pre-/postemergence herbicide test; type: in vivo, Ipomoea coccinea
Method in brief: as §2

pigweed = test: Test B pre-/postemergence herbicide test; type: in vivo, Amaranthus retroflexus
Method in brief: as §3

rice [10] = test: Test B pre-/postemergence herbicide test; type: in vivo, Oryza sativa; conditions: preemergence
Method in brief: as §3

velvetleaf [11] = test: Test B pre-/postemergence herbicide test; type: in vivo, Abutilon theophrasti
Method in brief: as §3

blackgrass = test: Test B postemergence herbicide test; type: in vivo, Alopecurus myosuroides; conditions: scale 0 (no effect) to 100 (complete control)
Method in brief: (§4)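 Visual ratings, 0 (no effect) to 100 (complete control), made versus controls after 13–15 d greenhouse. Paddy plants treated at 2-leaf stage; postemergence plants at 1- to 4-leaf stage, 2–18 cm tall.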

wheat = test: Test B postemergence herbicide test; type: in vivo, Triticum aestivum; parameters: key to Wheat plant response rating: 0 = no effect, 100 = complete control; conditions: scale 0 (no effect) to 100 (complete control)
Method in brief: (§5)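 After treating 2-leaf paddy plants or 2–18 cm postemergence plants (1 to 4 leaves) with formulated chemical, researchers kept them in a greenhouse for 13–15 days. Effects were judged visually versus controls: 0 indicates none, 100 total control.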

wild oat = test: Test B postemergence herbicide test; type: in vivo, Avena fatua; conditions: scale 0 (no effect) to 100 (complete control)
Method in brief: as §5

rice [12] = test: Test B flooded paddy test; type: in vivo, Oryza sativa; conditions: 1000 g ai/ha, visual rating, scale 0 to 100 (0 no effect, 100 complete control), 13 to 15 days
Method in brief: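 Postemergence plants were sprayed with formulated test chemicals at 2 to 18 cm height (1- to 4-leaf stage); paddy species were grown to the 2-leaf stage. After 13 to 15 days in a greenhouse, injury was rated visually against untreated controls on a 0–100 scale (0 = no effect, 100 = complete control).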

[13] = tested on: small flower umbrella sedge; test: Test B flooded paddy test; type: in vivo, Cyperus difformis; conditions: 1000 g ai/ha, visual rating, scale 0 to 100 (0 no effect, 100 complete control), 13 to 15 days
Method in brief: as §4

ducksalad = test: Test B flooded paddy test; type: in vivo, Heteranthera limosa; conditions: 1000 g ai/ha, visual rating, scale 0 to 100 (0 no effect, 100 complete control), 13 to 15 days
Method in brief: as §4

barnyardgrass [14] = test: Test B flooded paddy test; type: in vivo, Echinochloa crus-galli; conditions: 1000 g ai/ha, visual rating, scale 0 to 100 (0 no effect, 100 complete control), 13 to 15 days
Method in brief: as §4

[15] = Postemergence, 500 g ai/ha, 0 to 100 scale, 0 no effect, 100 complete control
[16] = Postemergence, 2000 g ai/ha, 0 to 100 scale, 0 no effect, 100 complete control
[17] = Preemergence, 500 g ai/ha, visual rating, 0 to 100 scale (0 no effect, 100 complete control)
[18] = Preemergence, 2000 g ai/ha, 0 to 100 scale, 0 no effect, 100 complete control
[19] = 500 g ai/ha, visual rating 0-100, 0 no effect, 100 complete control, preemergence
[20] = Postemergence, 500 g ai/ha, visual rating after 13 to 15 days, scale 0 (no effect) to 100 (complete control)
[21] = postemergence, 125 g ai/ha, visual rating, scale 0 (no effect) to 100 (complete control)
[22] = preemergence, 125 g ai/ha, 0 to 100 scale, 0 is no effect, 100 is complete control
[23] = Postemergence, 500 g ai/ha, visual rating after 13 to 15 days
[24] = postemergence, 125 g ai/ha, visual rating

## CCn1nc(C(C)(C)C)cc1C(=O)Nc1cccc(C(=O)OC(C)C)c1C [Compound 92]
Barnyardgrass [1]; [15]
  Barnyardgrass plant response rating: 0
Barnyardgrass [1]; [16]
  Plant response rating, Barnyardgrass: 0
Barnyardgrass [1]; [17]
  Barnyardgrass plant response rating: 0
Barnyardgrass [1]; [18]
  Barnyardgrass plant response rating: 0
Large crabgrass [2]; [15]
  Crabgrass, Large plant response rating: 0
Large crabgrass [2]; [16]
  Plant response rating, Crabgrass, Large: 10
Large crabgrass [2]; [17]
  Crabgrass, Large plant response rating: 0
Large crabgrass [2]; [18]
  Crabgrass, Large plant response rating: 0
Giant foxtail [3]; [15]
  Foxtail, Giant plant response rating: 0
Giant foxtail [3]; [16]
  Plant response rating, Foxtail, Giant: 0
Giant foxtail [3]; [17]
  Foxtail, Giant plant response rating: 0
Giant foxtail [3]; [18]
  Foxtail, Giant plant response rating: 0
Morningglory [4]; [15]
  Morningglory plant response rating: 0
Morningglory [4]; [16]
  Plant response rating, Morningglory: 0
Morningglory [4]; [17]
  Morningglory plant response rating: 0
Morningglory [4]; [18]
  Morningglory plant response rating: 0
Redroot pigweed; [15]
  Pigweed plant response rating: 0
Redroot pigweed; [16]
  Plant response rating, Pigweed: 0
Redroot pigweed; [17]
  Pigweed plant response rating: 0
Redroot pigweed; [18]
  Pigweed plant response rating: 35
Velvetleaf [5]; [15]
  Velvetleaf plant response rating: 0
Velvetleaf [5]; [16]
  Plant response rating, Velvetleaf: 0
Velvetleaf [5]; [17]
  Velvetleaf plant response rating: 0
Velvetleaf [5]; Preemergence, 2000 g ai/ha, visual rating, 0 to 100 scale (0 no effect, 100 complete control)
  Velvetleaf plant response rating: 0
Barnyardgrass [6]; [19]
  Plant response rating, Barnyardgrass: 0
Barnyardgrass [6]; [20]
  Plant response rating, Barnyardgrass: 0
Barnyardgrass [6]; [21]
  Barnyardgrass plant response rating: 0
Barnyardgrass [6]; [22]
  Plant response rating, Barnyardgrass: 0
Surinam grass; [19]
  Plant response rating, Surinam Grass: 0
Surinam grass; [20]
  Plant response rating, Surinam Grass: 10
Surinam grass; [21]
  Surinam Grass plant response rating: 0
Surinam grass; [22]
  Plant response rating, Surinam Grass: 0
cocklebur; [19]
  Plant response rating, Cocklebur: 0
cocklebur; [20]
  Plant response rating, Cocklebur: 0
cocklebur; [21]
  Cocklebur plant response rating: 0
cocklebur; [22]
  Plant response rating, Cocklebur: 0
corn; [19]
  Plant response rating, Corn: 0
corn; [20]
  Plant response rating, Corn: 10
corn; [21]
  Corn plant response rating: 10
corn; [22]
  Plant response rating, Corn: 0
Large crabgrass [7]; [19]
  Plant response rating, Crabgrass, Large: 10
Large crabgrass [7]; [20]
  Plant response rating, Crabgrass, Large: 10
Large crabgrass [7]; [21]
  Crabgrass, Large plant response rating: 0
Large crabgrass [7]; [22]
  Plant response rating, Crabgrass, Large: 0
Giant foxtail [8]; [19]
  Plant response rating, Foxtail, Giant: 10
Giant foxtail [8]; [20]
  Plant response rating, Foxtail, Giant: 0
Giant foxtail [8]; [21]
  Foxtail, Giant plant response rating: 0
Giant foxtail [8]; [22]
  Plant response rating, Foxtail, Giant: 0
lambsquarters; [19]
  Plant response rating, Lambsquarters: 0
lambsquarters; [20]
  Plant response rating, Lambsquarters: 20
lambsquarters; [21]
  Lambsquarters plant response rating: 20
lambsquarters; [22]
  Plant response rating, Lambsquarters: 0
Morningglory [9]; [19]
  Plant response rating, Morningglory: 0
Morningglory [9]; [20]
  Plant response rating, Morningglory: 0
Morningglory [9]; [21]
  Morningglory plant response rating: 0
Morningglory [9]; [22]
  Plant response rating, Morningglory: 0
pigweed; [19]
  Plant response rating, Pigweed: 0
pigweed; [20]
  Plant response rating, Pigweed: 10
pigweed; [21]
  Pigweed plant response rating: 0
pigweed; [22]
  Plant response rating, Pigweed: 0
Rice [10]; 500 g ai/ha, visual rating 0-100, 0 no effect, 100 complete control
  Plant response rating, Rice: 0
Rice [10]; 125 g ai/ha, 0 to 100 scale, 0 is no effect, 100 is complete control
  Plant response rating, Rice: 0
Velvetleaf [11]; [19]
  Plant response rating, Velvetleaf: 0
Velvetleaf [11]; [20]
  Plant response rating, Velvetleaf: 0
Velvetleaf [11]; [21]
  Velvetleaf plant response rating: 0
Velvetleaf [11]; [22]
  Plant response rating, Velvetleaf: 0
blackgrass; [23]
  Plant response rating, Blackgrass: 0
blackgrass; [24]
  Blackgrass plant response rating: 0
wheat; [23]
  Plant response rating, Wheat: 0
wheat; [24]
  Wheat plant response rating: 0
Wild oat; [23]
  Plant response rating, Oat, Wild: 0
Wild oat; [24]
  Oat, Wild plant response rating: 0
Rice [12]
  Rice plant response rating: 0
[13]
  Sedge, Umbrella plant response rating: 0
ducksalad
  Ducksalad plant response rating: 0
Barnyardgrass [14]
  Barnyardgrass plant response rating: 0
